The values that follow come from PubChem BioAssay AID330 (DTP/NCI, 2004).

Where “and” joins values, the source holds several entries; their conditions need not be identical. Equal values may be shown once. Inconclusive results and toxic doses are left out.

For the assay, the system named is P388 leukemia ip, CD2F1 mice, survival T/C. Description: NCI In Vivo Anticancer Drug Screen. Data for tumor model P388 Leukemia (intraperitoneal) in CD2F1 (CDF1) mice. Conditions: endpoint: median survival time, higher = longer survival. Summed up:
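Mice carrying the transplanted tumor received test compound or vehicle. Survival was recorded in each group, and the value is the treated-group measurement divided by that of the vehicle-treated control group.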

Where [1] appears, read: dose: 50.0 mg/kg/injection, schedule: Q01DX005 (ip), vehicle: Klucel (hydroxypropylcellulose) (HPC).
Where [2] appears, read: dose: 100.0 mg/kg/injection, schedule: Q01DX005 (ip), vehicle: Klucel (hydroxypropylcellulose) (HPC).
[3] abbreviates: dose: 200.0 mg/kg/injection, schedule: Q01DX005 (ip), vehicle: Klucel (hydroxypropylcellulose) (HPC).
The mark [4] stands for this setting: dose: 25.0 mg/kg/injection, schedule: Q01DX009 (ip), vehicle: saline with Tween-80.
[5] abbreviates: dose: 50.0 mg/kg/injection, schedule: Q01DX009 (ip), vehicle: Klucel (hydroxypropylcellulose) (HPC).
[6] abbreviates: dose: 50.0 mg/kg/injection, schedule: Q01DX009 (ip), vehicle: saline with Tween-80.
Setting [7] is: dose: 100.0 mg/kg/injection, schedule: Q01DX009 (ip), vehicle: saline with Tween-80.
Setting [8] is: dose: 100.0 mg/kg/injection, schedule: Q01DX009 (ip), vehicle: Klucel (hydroxypropylcellulose) (HPC).

Turning to `CC(=O)SCCCn1c(=O)n(CCCSC(C)=O)c(=O)n(CCCSC(C)=O)c1=O`, the T/C (dose: 50.0 mg/kg/injection, schedule: Q01DX005 (ip), vehicle: saline + Tween-80 + alcohol) was 114 % of control; the T/C (dose: 100.0 mg/kg/injection, schedule: Q01DX005 (ip), vehicle: saline + Tween-80 + alcohol) is 110 % of control; the T/C (dose: 200.0 mg/kg/injection, schedule: Q01DX005 (ip), vehicle: saline + Tween-80 + alcohol) is 116 % of control.

In the case of `O=C(OC(c1ccccc1)c1ccccc1)C1CSCN1C(=O)OCc1ccccc1[N+](=O)[O-]` (stereo not drawn), the T/C is, setting by setting: (dose: 50.0 mg/kg/injection, schedule: Q01DX005 (ip), vehicle: saline with Tween-80) 108 % of control; (dose: 100.0 mg/kg/injection, schedule: Q01DX005 (ip), vehicle: saline with Tween-80) 110 % of control; (dose: 200.0 mg/kg/injection, schedule: Q01DX005 (ip), vehicle: saline with Tween-80) 100 % of control.

On to `C=C1C(=O)O[C@@H]2C[C@@]3(C)CCC[C@H](C)C3=C[C@H]12` (tested in a mixture with another compound), for which the T/C is 93 % of control (dose: 7.5 mg/kg/injection, schedule: Q01DX005 (ip), vehicle: saline + alcohol); 94 % of control (dose: 15.0 mg/kg/injection, schedule: Q01DX005 (ip), vehicle: saline + alcohol); 103 % of control (dose: 30.0 mg/kg/injection, schedule: Q01DX005 (ip), vehicle: saline + alcohol); 100 % of control (dose: 60.0 mg/kg/injection, schedule: Q01DX005 (ip), vehicle: saline + alcohol); 104 % of control (dose: 120.0 mg/kg/injection, schedule: Q01DX005 (ip), vehicle: saline + alcohol).

For `CCOC(=O)\C(C#N)=C/C(C)=C/C(C)=C/Nc1ccc([N+](=O)[O-])cc1[N+](=O)[O-]`, the T/C is, setting by setting: under setting [1], 111 % of control; under setting [2], 110 % of control; under setting [3], 114 % of control.

As for `Cc1cnc(/C=N\NC(N)=S)c2cccc(N)c12`, the T/C reads like this: (dose: 1.57 mg/kg/injection, schedule: Q01DX009 (ip), vehicle: saline with Tween-80) 120 % of control; (dose: 3.12 mg/kg/injection, schedule: Q01DX009 (ip), vehicle: saline with Tween-80) 103 % of control; (dose: 4.32 mg/kg/injection, schedule: Q01DX005 (ip), vehicle: clinical formulation) 121 % of control; (dose: 6.25 mg/kg/injection, schedule: Q01DX009 (ip), vehicle: water) 170 % of control; (dose: 12.0 mg/kg/injection, schedule: Q01DX005 (ip), vehicle: clinical formulation) 152 % of control; (dose: 12.5 mg/kg/injection, schedule: Q01DX009 (ip), vehicle: Klucel (hydroxypropylcellulose) (HPC)) 162 % of control and 163 % of control. Moreover, the T/C (dose: 12.5 mg/kg/injection, schedule: Q01DX009 (ip), vehicle: other) is 188 % of control; the T/C (dose: 12.5 mg/kg/injection, schedule: Q01DX009 (ip), vehicle: saline with Tween-80) is 168 % of control; the T/C (dose: 12.5 mg/kg/injection, schedule: Q01DX009 (ip), vehicle: saline) was 150 % of control; the T/C (dose: 12.5 mg/kg/injection, schedule: Q01DX009 (ip), vehicle: water) was 189 % of control; the T/C (dose: 20.0 mg/kg/injection, schedule: Q01DX005 (ip), vehicle: clinical formulation) is 155 % of control; the T/C (dose: 25.0 mg/kg/injection, schedule: Q01DX009 (ip), vehicle: Klucel (hydroxypropylcellulose) (HPC)) was 179 % of control and 193 % of control. Moreover, the T/C is 97 % of control (dose: 25.0 mg/kg/injection, schedule: Q01DX009 (ip), vehicle: other); 184 % of control under setting [4]; 172 % of control (dose: 25.0 mg/kg/injection, schedule: Q01DX009 (ip), vehicle: saline); 218 % of control (dose: 25.0 mg/kg/injection, schedule: Q01DX009 (ip), vehicle: water); 109 % of control under setting [5].

With `N#Cc1ccc(=O)[nH]c1O`, the T/C reads like this: under setting [6], 99 % of control; under setting [7], 100 % of control.

As for `CCn1cc(C(=O)O)c(=O)c2ccc(-c3cn(C)nc3C)nc21` (tested in a mixture with another compound), the T/C by setting is: (dose: 50.0 mg/kg/injection, schedule: Q04DX002 (ip), vehicle: saline) 99 % of control; (dose: 100.0 mg/kg/injection, schedule: Q04DX002 (ip), vehicle: saline) 99 % of control; (dose: 200.0 mg/kg/injection, schedule: Q04DX002 (ip), vehicle: saline) 98 % of control.

Take `CCCCCCCCCCC(=O)CCCCC`: the T/C is, setting by setting: (dose: 100.0 mg/kg/injection, schedule: Q04DX003 (ip), vehicle: other) 104 % of control; (dose: 200.0 mg/kg/injection, schedule: Q04DX003 (ip), vehicle: other) 109 % of control; (dose: 400.0 mg/kg/injection, schedule: Q04DX003 (ip), vehicle: other) 113 % of control.

As for `COc1cccc2c1C(=N)c1c(O)c3c(c(O)c1C2=O)CC(O)(C(=O)CO)CC3OC1CC(N2CCOCC2)C(O)C(C)O1` (stereo not drawn), the T/C is 101 % of control and 104 % of control and 98 % of control (dose: 0.13 mg/kg/injection, schedule: Q04DX003 (ip), vehicle: water); 101 % of control and 108 % of control and 116 % of control (dose: 0.25 mg/kg/injection, schedule: Q04DX003 (ip), vehicle: water); 104 % of control and 107 % of control (dose: 0.5 mg/kg/injection, schedule: Q04DX003 (ip), vehicle: water); 105 % of control (dose: 0.78 mg/kg/injection, schedule: Q04DX003 (ip), vehicle: distilled water + Tween-80); 99 % of control and 104 % of control and 107 % of control (dose: 1.0 mg/kg/injection, schedule: Q04DX003 (ip), vehicle: water); 101 % of control (dose: 1.56 mg/kg/injection, schedule: Q04DX003 (ip), vehicle: distilled water + Tween-80). Besides, the T/C (dose: 3.12 mg/kg/injection, schedule: Q04DX003 (ip), vehicle: distilled water + Tween-80) is 99 % of control.

With `CN(C)c1ccc(C(O)C(N)=O)cc1` (stereo not drawn), the T/C (dose: 6.25 mg/kg/injection, schedule: Q04DX003 (ip), vehicle: saline) was 100 % of control; the T/C (dose: 12.5 mg/kg/injection, schedule: Q04DX003 (ip), vehicle: saline) is 104 % of control; the T/C (dose: 25.0 mg/kg/injection, schedule: Q04DX003 (ip), vehicle: saline) was 100 % of control.

Regarding `COc1ccc(/C=N/N2C(=O)c3ccccc3C2=O)c(OC)c1`, the T/C is 99 % of control under setting [1], 98 % of control under setting [2] and 96 % of control under setting [3].

For `CC(=O)C(C(=O)CCSCC(N)C(=O)O)C(SCC(N)C(=O)O)c1ccc(Cl)c(Cl)c1` (stereo not drawn), the T/C by setting is: (dose: 50.0 mg/kg/injection, schedule: Q01DX005 (ip), vehicle: saline) 103 % of control; (dose: 100.0 mg/kg/injection, schedule: Q01DX005 (ip), vehicle: saline) 103 % of control; (dose: 200.0 mg/kg/injection, schedule: Q01DX005 (ip), vehicle: saline) 102 % of control.

Turning to `O=c1[nH]cc(NS(=O)(=O)c2ccc([N+](=O)[O-])cc2)c(=O)[nH]1`, the T/C is 101 % of control (dose: 60.0 mg/kg/injection, schedule: Q01DX005 (ip), vehicle: Klucel (hydroxypropylcellulose) (HPC)); 103 % of control (dose: 120.0 mg/kg/injection, schedule: Q01DX005 (ip), vehicle: Klucel (hydroxypropylcellulose) (HPC)); 108 % of control (dose: 240.0 mg/kg/injection, schedule: Q01DX005 (ip), vehicle: Klucel (hydroxypropylcellulose) (HPC)).

Consider `CN(C)c1cc(N(C)C)c2cc(Cl)ccc2n1`, for which the T/C was 106 % of control under setting [5] and 100 % of control under setting [8].

With `CCCCCCOC(=O)c1ccc(Br)cc1`, the T/C is, setting by setting: under setting [5], 104 % of control; under setting [8], 101 % of control; (dose: 200.0 mg/kg/injection, schedule: Q01DX009 (ip), vehicle: Klucel (hydroxypropylcellulose) (HPC)) 93 % of control.

Take `CCOC(=O)Nc1cc(NCC(=O)c2ccc(Cl)cc2)c([N+](=O)[O-])c(N)n1`: the T/C reads like this: (dose: 50.0 mg/kg/injection, schedule: Q01DX001 (ip), vehicle: saline with Tween-80) 92 % of control; (dose: 100.0 mg/kg/injection, schedule: Q01DX001 (ip), vehicle: saline with Tween-80) 90 % of control; (dose: 200.0 mg/kg/injection, schedule: Q01DX001 (ip), vehicle: saline with Tween-80) 88 % of control.

Consider `O=C(/C=C/c1ccccc1)NOC(=O)/C=C/c1ccccc1`, for which the T/C was 107 % of control under setting [4]; 107 % of control and 123 % of control under setting [6]; 111 % of control and 114 % of control under setting [7]; 115 % of control (dose: 200.0 mg/kg/injection, schedule: Q01DX009 (ip), vehicle: saline with Tween-80).

With `CN(C)CCCN(c1ccccc1)c1ccccc1`, the T/C was 98 % of control under setting [1], 98 % of control under setting [2] and 98 % of control under setting [3].
